The target in this assay is T1, CFTR channel (Homo sapiens, UniProt P13569).
T1 construct: results in the phosphorylation and opening of CFTR anion channels; host or cells: human colonic T84 cells
T1 sequence (P13569 whole entry): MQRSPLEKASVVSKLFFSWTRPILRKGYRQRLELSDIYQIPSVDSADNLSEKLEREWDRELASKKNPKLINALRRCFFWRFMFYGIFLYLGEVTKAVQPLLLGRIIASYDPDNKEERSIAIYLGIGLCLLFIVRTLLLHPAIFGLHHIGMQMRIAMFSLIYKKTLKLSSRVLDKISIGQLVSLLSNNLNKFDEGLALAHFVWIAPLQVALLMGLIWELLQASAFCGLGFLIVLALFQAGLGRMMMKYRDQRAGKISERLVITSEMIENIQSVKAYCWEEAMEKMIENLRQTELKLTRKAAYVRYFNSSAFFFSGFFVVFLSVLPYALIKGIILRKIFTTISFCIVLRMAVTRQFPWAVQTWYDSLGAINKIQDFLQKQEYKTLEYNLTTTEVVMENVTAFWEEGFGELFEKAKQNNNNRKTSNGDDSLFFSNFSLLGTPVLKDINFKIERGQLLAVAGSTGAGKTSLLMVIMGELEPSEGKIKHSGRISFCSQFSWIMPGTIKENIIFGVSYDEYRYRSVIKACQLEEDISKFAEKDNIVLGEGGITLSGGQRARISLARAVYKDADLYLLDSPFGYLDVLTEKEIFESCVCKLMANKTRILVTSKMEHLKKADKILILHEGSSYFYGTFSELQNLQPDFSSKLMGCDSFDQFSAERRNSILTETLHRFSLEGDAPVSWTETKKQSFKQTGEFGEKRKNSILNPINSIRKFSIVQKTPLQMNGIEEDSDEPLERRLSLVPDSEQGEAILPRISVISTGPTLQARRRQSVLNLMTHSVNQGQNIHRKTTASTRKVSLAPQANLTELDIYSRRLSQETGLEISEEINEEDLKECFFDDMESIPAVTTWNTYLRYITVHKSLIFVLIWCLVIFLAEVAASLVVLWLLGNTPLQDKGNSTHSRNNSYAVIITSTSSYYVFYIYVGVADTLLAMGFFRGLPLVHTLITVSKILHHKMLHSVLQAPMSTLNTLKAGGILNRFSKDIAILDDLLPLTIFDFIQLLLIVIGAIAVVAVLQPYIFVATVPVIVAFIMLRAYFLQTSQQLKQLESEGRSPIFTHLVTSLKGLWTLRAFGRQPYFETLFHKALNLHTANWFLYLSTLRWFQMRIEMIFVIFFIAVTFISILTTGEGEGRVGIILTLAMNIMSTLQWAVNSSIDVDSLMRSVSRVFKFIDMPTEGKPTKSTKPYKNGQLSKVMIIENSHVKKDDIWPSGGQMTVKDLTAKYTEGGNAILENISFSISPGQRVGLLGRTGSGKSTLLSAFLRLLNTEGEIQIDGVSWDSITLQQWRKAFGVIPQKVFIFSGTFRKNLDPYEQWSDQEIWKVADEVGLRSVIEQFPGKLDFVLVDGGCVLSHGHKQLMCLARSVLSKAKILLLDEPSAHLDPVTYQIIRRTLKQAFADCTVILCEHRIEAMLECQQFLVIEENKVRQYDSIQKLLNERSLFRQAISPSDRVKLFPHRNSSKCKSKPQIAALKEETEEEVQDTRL
The assay can be described thus: T84 assay (FLIPR membrane potential, forskolin/IBMX-stimulated CFTR channel activity). The assay is classed as cell-based. Particulars: Human colonic T84 cells; 10 μM forskolin + 100 μM IBMX; average of at least 2 runs unless marked n = 1. The method, then:
(§1) For example, Human colonic T84 cells can be acquired from the European Collection of Cell Cultures (ECACC) and grown in standard culture conditions as described by the supplier. On the day before assay 25,000 T84 cells per well are plated into standard black walled, clear bottom 384-well assay plates in standard growth medium consisting of DMEM:F12 with 10% FBS and incubated overnight. On the day of the assay the plates are washed using a standard assay buffer (HBSS with 10 mM Hepes) and incubated for 15 minutes in serum free cell culture medium before the addition of a commercially available membrane potential sensitive fluorescent dye (FLIPR Red membrane potential dye, Molecular Devices Corporation). T84 cells are incubated with the FLIPR Red membrane potential dye for 45 minutes in the presence and absence of test compound before being transferred to a commercially available fluorescence imaging plate reader (FLIPR384, Molecular Devices Corporation). Fluorescence levels are monitored continuously every second for 150 seconds; after an initial 10 second baseline, CFTR channel activity is stimulated through the addition of 10 μM forskolin in the presence of 100 μM of the phosphodiesterase inhibitor iso-butyl-methylxanthine (IBMX). Addition of the forskolin leads to the activation of intracellular adenylyl cylase 1, elevating cAMP levels and results in the phosphorylation and opening of CFTR anion channels. CFTR channel opening causes chloride ion efflux and subsequent depolarization of the cells, which is measured by an increase in fluorescence. CFTR inhibitor compounds prevent cell depolarization and the associated increase in fluorescence.
as §1, with “Human colonic” for “For example, Human colonic”, “T84 cells are acquired from” for “T84 cells can be acquired from”, “(ECACC) and are grown in” for “(ECACC) and grown in”
A word on the IC50: it is the concentration at which inhibition is half-maximal. For `Oc1c(Cl)cc(-c2noc(C(O)(c3ccc(Cl)cc3)c3ccc(Cl)cc3)n2)cc1Cl` [Compound 11, 4-(5-(bis(4-chlorophenyl)(hydroxy)methyl)-1,2,4-oxadiazol-3-yl)-2,6-dichlorophenol], the IC50 worked out at 11.1 µM. Turning to `Oc1c(Br)cc(-c2noc(C(O)(c3ccccc3)c3ccccc3)n2)cc1Br` [Compound 5, 2,6-dibromo-4-(5-(hydroxydiphenylmethyl)-1,2,4-oxadiazol-3-yl)phenol], the IC50 was determined as 5.85 µM.

As for `COc1cccc(C(O)(c2cccc(OC)c2)c2nc(-c3cc(Br)c(O)c(Br)c3)no2)c1` [Compound 3, 2,6-dibromo-4-(5-(hydroxybis(3-methoxyphenyl)methyl)-1,2,4-oxadiazol-3-yl)phenol], the IC50 came out at 5.47 µM. The same measure for `CC(C)(C)c1ccc(C(O)(c2ccc(C(C)(C)C)cc2)c2nc(-c3cc(Br)c(O)c(Br)c3)no2)cc1` [Compound 6, 4-(5-(bis(4-tert-butylphenyl)(hydroxy)methyl)-1,2,4-oxadiazol-3-yl)-2,6-dibromophenol]: 18.8 µM. The value for `Oc1c(Cl)cc(-c2noc(C(O)(c3ccccc3)c3ccccc3)n2)cc1Cl` [Compound 10, 2,6-dichloro-4-(5-(hydroxydiphenylmethyl)-1,2,4-oxadiazol-3-yl)phenol] was 6.94 µM. `Oc1c(Br)cc(-c2noc(C(O)(Cc3ccccc3)Cc3ccccc3)n2)cc1Br` [Compound 1, 2,6-dibromo-4-(5-(2-hydroxy-1,3-diphenylpropan-2-yl)-1,2,4-oxadiazol-3-yl)phenol]: the IC50 is 3.89 µM. Take `Oc1c(Br)cc(-c2noc(C(O)(c3cccc(Cl)c3)c3cccc(Cl)c3)n2)cc1Br` [Compound 8, 4-(5-(bis(3-chlorophenyl)(hydroxy)methyl)-1,2,4-oxadiazol-3-yl)-2,6-dibromophenol]: the IC50 amounted to 11.4 µM.

`Oc1c(Br)cc(-c2noc(C(O)(c3ccc(Cl)cc3)c3ccc(Cl)cc3)n2)cc1Br` [Compound 4, 4-(5-(bis(4-chlorophenyl)(hydroxy)methyl)-1,2,4-oxadiazol-3-yl)-2,6-dibromophenol]: the 50% inhibitory concentration (IC50) is 5.63 µM. Regarding `Oc1c(Br)cc(-c2noc(C(O)(c3ccc4ccccc4c3)c3ccc4ccccc4c3)n2)cc1Br` [Compound 7, 2,6-dibromo-4-(5-(hydroxydinaphthalen-2-ylmethyl)-1,2,4-oxadiazol-3-yl)phenol], the IC50 stood at 18.7 µM. On to `COc1cccc(C(O)(c2cccc(OC)c2)c2nc(-c3cc(Cl)c(O)c(Cl)c3)no2)c1` [Compound 9, 2,6-dichloro-4-(5-(hydroxybis(3-methoxyphenyl)methyl)-1,2,4-oxadiazol-3-yl)phenol], for which the IC50 was 9.65 µM. `CC#CC(O)(C#CC)c1nc(-c2cc(Br)c(O)c(Br)c2)no1` [Compound 12, 2,6-dibromo-4-(5-(4-hydroxyhepta-2,5-diyn-4-yl)-1,2,4-oxadiazol-3-yl)phenol]: the IC50 was found to be 16.2 µM.

As to `Oc1c(Br)cc(-c2noc(C(O)(c3cccc(F)c3)c3cccc(F)c3)n2)cc1Br` [Compound 2, 4-(5-(bis(3-fluorophenyl)(hydroxy)methyl)-1,2,4-oxadiazol-3-yl)-2,6-dibromophenol], the IC50 stood at 5.04 µM.

Source of the values: patent US20090264481A1, “Compounds, Compositions and Methods Comprising Oxadiazole Derivatives” (Institute for OneWorld Health, priority 2008, published 2009).
